We go through eleven compounds from ChEMBL document CHEMBL4837250, “Discovery of LYC-55716: A Potent, Selective, and Orally Bioavailable Retinoic Acid Receptor-Related Orphan Receptor-γ (RORγ) Agonist for Use in Treating Cancer” (J Med Chem, 2021).

A short description of series [1]: in vivo. To be noted: CD1, mouse, plasma, po, 10 mg/kg.
A short description of series [2]: in vivo. The note with it: CD1, mouse, po, 10 mg/kg.
The nature of series [3]: in vivo. To be noted: CD1, mouse, po, 10 mg/kg. The source holds these as a separate data set.
Description: Half life in CD1 mouse at 10 mg/kg, po
Series [4] can be described thus: in vivo. To be noted: CD1, mouse, po, 10 mg/kg. This is another data set of the same source.
A short description of series [5]: in vitro. To be noted: human, hepatocytes.
For series [6], the target named is CYP3A4 (Homo sapiens, UniProt P08684). In words: in vitro. The note with it: probe testosterone.
Description: Inhibition of CYP3A4 (unknown origin) assessed as oxidation of testosterone at 10 uM
The target in series [7] is CYP2D6 (Homo sapiens, UniProt P10635). The series is described as follows: in vitro. The note with it: probe testosterone.
Description: Inhibition of CYP2D6 (unknown origin) assessed as oxidation of testosterone at 10 uM
Series [8] in a line: physchem. To be noted: PBS buffer, pH 7.4.
Description: Solubility of the compound in pH 7.4 PBS buffer
Series [9] addresses T1, Nuclear receptor ROR-gamma (Homo sapiens, UniProt P51449).
T1 sequence (P51449 whole entry): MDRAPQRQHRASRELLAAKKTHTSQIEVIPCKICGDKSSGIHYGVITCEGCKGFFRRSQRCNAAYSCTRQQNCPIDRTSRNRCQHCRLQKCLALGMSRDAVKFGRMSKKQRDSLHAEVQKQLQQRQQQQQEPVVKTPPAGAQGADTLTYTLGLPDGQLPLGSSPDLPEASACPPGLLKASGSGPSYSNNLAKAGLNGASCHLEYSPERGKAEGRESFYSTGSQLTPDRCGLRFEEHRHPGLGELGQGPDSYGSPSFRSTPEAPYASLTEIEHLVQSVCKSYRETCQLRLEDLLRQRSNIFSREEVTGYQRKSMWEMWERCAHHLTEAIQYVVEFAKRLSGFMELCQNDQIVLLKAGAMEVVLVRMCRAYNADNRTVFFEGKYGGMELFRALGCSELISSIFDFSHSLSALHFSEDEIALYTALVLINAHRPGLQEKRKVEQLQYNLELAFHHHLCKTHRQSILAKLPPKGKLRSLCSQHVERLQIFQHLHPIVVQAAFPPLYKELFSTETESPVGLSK
Description: Agonist activity at human His-tagged RORgamma-LBD expressed in Sf9 cells assessed as inhibition of N-terminal biotinylated co-activator SRC1 recruitment in presence of ursolic acid measured after 60 mins by FRET assay

The target of series [10] is T1, Nuclear receptor ROR-gamma. The source holds these as a separate data set.
Description: Agonist activity at human ROR-gamma LBD expressed in HEK293 cells assessed as transcriptional activity in presence of ursolic acid by Gal4-luciferase reporter assay
Series [11] concerns the target T2, Nuclear receptor subfamily 1 group I member 2 (Homo sapiens, UniProt O75469).
T2 sequence (O75469 whole entry): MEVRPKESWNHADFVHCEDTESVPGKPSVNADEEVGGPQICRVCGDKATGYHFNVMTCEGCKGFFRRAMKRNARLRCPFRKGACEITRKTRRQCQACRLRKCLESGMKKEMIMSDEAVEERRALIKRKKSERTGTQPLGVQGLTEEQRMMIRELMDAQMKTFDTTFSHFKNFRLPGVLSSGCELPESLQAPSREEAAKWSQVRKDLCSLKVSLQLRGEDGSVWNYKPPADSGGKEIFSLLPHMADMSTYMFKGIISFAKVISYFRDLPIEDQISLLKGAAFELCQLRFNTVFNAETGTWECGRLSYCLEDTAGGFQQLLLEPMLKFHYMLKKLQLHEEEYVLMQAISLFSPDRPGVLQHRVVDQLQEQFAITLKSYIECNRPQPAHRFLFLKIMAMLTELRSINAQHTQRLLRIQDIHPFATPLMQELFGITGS
Description: Agonist activity at human PXR-gamma expressed in HEK293 cells assessed as transcriptional activity in presence of ursolic acid by Gal4-luciferase reporter assay

Series [12] in a line: in vitro. The note with it: human, hepatocytes. The source holds these as a separate data set.
Description: Clearance in human hepatocyte measured per 10^6 cells

In brackets after ≈: the same amount, converted by molar mass.

Sequence of CYP2D6 (P10635 whole entry): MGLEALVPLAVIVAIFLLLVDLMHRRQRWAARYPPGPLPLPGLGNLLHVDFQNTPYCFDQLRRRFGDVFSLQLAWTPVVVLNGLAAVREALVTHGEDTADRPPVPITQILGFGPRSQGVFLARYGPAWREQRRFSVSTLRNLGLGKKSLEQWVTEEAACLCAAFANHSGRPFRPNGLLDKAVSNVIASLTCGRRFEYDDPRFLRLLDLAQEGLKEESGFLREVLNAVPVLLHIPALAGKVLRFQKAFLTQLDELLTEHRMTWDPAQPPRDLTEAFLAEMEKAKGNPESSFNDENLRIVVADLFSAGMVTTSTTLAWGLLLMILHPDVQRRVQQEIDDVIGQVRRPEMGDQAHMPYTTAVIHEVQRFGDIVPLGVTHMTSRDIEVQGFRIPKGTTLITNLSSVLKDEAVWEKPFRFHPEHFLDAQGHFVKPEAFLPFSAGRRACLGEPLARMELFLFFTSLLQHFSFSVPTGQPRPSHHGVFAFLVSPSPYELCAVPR
Sequence of CYP3A4 (P08684 whole entry): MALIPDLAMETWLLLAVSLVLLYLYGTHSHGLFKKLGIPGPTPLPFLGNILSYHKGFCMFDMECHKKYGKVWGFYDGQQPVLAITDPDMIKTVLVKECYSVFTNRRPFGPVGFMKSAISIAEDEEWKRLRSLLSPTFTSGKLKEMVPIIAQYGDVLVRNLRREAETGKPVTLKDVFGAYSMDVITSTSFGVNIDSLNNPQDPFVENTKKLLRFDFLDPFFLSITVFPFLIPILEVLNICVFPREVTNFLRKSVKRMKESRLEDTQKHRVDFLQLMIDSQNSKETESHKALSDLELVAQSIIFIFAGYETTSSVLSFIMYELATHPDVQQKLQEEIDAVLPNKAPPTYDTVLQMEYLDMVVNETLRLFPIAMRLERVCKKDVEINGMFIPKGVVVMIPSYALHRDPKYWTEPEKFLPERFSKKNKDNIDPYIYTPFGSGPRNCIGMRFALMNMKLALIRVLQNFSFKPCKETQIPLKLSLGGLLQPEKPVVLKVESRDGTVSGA

`O=C(O)CC[C@H]1CN(S(=O)(=O)c2cccc(C(F)(F)F)c2)c2cc(/C=C/c3c(Cl)cccc3C(F)(F)F)ccc2O1` registered a CL/F in series [1] of 2 mL/min/kg. Besides, the AUC(0-inf) in series [2] came to 71000 ng·h/mL. In series [3], the half-life was 3.69 h. For the same compound, the bioavailability in series [4] was determined as 86%. The compound also registered a hepatocyte CLint in series [5] of 20 µL/min/1e6 cells. In addition, the inhibition at 10 µM in series [6] came to 8%; in [7] it was 3%. The same compound had a solubility in [8] of 15 µM (≈ 9.3 µg/mL).

As for `O=C(O)C1(C[C@H]2CN(S(=O)(=O)c3cccc(C(F)(F)F)c3)c3cc(-c4cccc(Cl)c4F)ccc3O2)CCOCC1`, the figures for the EC50 in series [9], in series [10] and in [11] were 24 nM, 103 nM and above 10000 nM, respectively. Moreover, the hepatocyte CLint in series [5] stood at 13 µL/min/1e6 cells. Besides, the inhibition at 10 µM in [6] stood at 36%; in [7] it was 9%. In series [8], this compound registered a solubility of 93 µM (≈ 57.1 µg/mL).

As for `CCOc1nn2c(c1S(=O)(=O)N1C[C@H](CCC(=O)O)Oc3ccc(/C=C(\C)c4c(F)cccc4Cl)cc31)CCCC2`, the EC50 is 199 nM in series [10] and above 10000 nM in series [11]. In series [1], this compound showed a CL/F of 7.8 mL/min/kg. The compound further came in with an AUC(0-inf) in series [2] of 35600 ng·h/mL. The same compound showed a half-life in [3] of 1.66 h. The compound further registered a bioavailability in series [4] of 100%. The compound also registered a hepatocyte CLint in [5] of 15 µL/min/1e6 cells. Moreover, the inhibition at 10 µM in series [6] came to 19%; in series [7], 6%. Further, the solubility in series [8] turned out to be 288 µM (≈ 174 µg/mL).

In turn, `O=C(O)C1(C[C@H]2CN(S(=O)(=O)c3cccc(C(F)(F)F)c3)c3cc(-c4cc(F)cc(OC(F)F)c4)ccc3O2)COC1` gave a CL/F in series [1] of 70.2 mL/min/kg. In [2], this compound showed an AUC(0-inf) of 1400 ng·h/mL. Moreover, the half-life in series [3] was 2.74 h. In addition, the bioavailability in [4] was 59%. In addition, the hepatocyte CLint in series [12] and in series [5] was 17 µL/min/1e6 cells in each case. In series [8], this compound showed a solubility of 262 µM (≈ 162 µg/mL).

In the case of `O=C(O)CC[C@H]1CN(S(=O)(=O)c2cccc(C(F)(F)F)c2)c2cc(-c3cc(F)ccc3Cl)ccc2O1`, the figures for the EC50 in series [9], in series [10] and in series [11] were 145 nM, 124 nM and above 10000 nM, respectively. Also, the hepatocyte CLint in [5] stood at 27 µL/min/1e6 cells. The inhibition at 10 µM stood at 15% in [6] and 6% in series [7]. The compound also gave a solubility in series [8] of 239 µM (≈ 130 µg/mL).

On to `O=C(O)CC[C@H]1CN(S(=O)(=O)c2cccc(C(F)(F)F)c2)c2cc(-c3cc(F)ccc3F)ccc2O1`, for which the EC50 in series [9] was 8 nM; in series [10] it was 181 nM; in series [11] it was above 10000 nM. The compound further came in with a hepatocyte CLint in [5] of 31 µL/min/1e6 cells. Also, the inhibition at 10 µM in [6] amounted to 13%; in [7] it was 1%. The compound also returned a solubility in series [8] of 227 µM (≈ 120 µg/mL).

In the case of `CC(C)(C[C@H]1CN(S(=O)(=O)c2cccc(C(F)(F)F)c2)c2cc(-c3cc(F)ccc3F)ccc2O1)C(=O)O`, the EC50 in [9] is 13 nM; in series [10], 344 nM; in [11], above 10000 nM. For the same compound, the CL/F in series [1] was 13.2 mL/min/kg. The compound further registered an AUC(0-inf) in series [2] of 9820 ng·h/mL. Moreover, the half-life in series [3] was 7.35 h. The compound further showed a bioavailability in series [4] of 78%. Further, the hepatocyte CLint in series [5] amounted to 7.7 µL/min/1e6 cells. The inhibition at 10 µM in [6] stood at 28%; in [7], 6%. The solubility in [8] was determined as 13 µM (≈ 7.22 µg/mL).

As to `O=C(O)C1(C[C@H]2CN(S(=O)(=O)c3cccc(C(F)(F)F)c3)c3cc(-c4cc(F)ccc4F)ccc3O2)CCOCC1`, the values for the concentration giving a half-maximal response (EC50) in [9], in [10] and in series [11] were 5 nM, above 10000 nM and above 10000 nM, respectively. Besides, the intrinsic metabolic clearance (hepatocyte CLint) in [5] was 21 µL/min/1e6 cells. Further, the inhibition at 10 µM turned out to be 5% in series [6] and 8% in series [7]. This compound also returned a solubility in series [8] of 43 µM (≈ 25.7 µg/mL).

For `O=C(O)C1(C[C@H]2CN(S(=O)(=O)c3cccc(C(F)(F)F)c3)c3cc(-c4cc(F)cc(OC(F)F)c4)ccc3O2)CCOCC1`, the EC50 in series [9] was 8 nM; in series [10] it was 58 nM; in series [11] it was 13000 nM. The compound also yielded a hepatocyte CLint in series [5] of 9 µL/min/1e6 cells. Further, the inhibition at 10 µM in series [6] is -2%; in [7], 4%. For the same compound, the concentration in solution in [8] (solubility) came to 90 µM (≈ 58.1 µg/mL).

Consider `O=C(O)CC[C@H]1CN(S(=O)(=O)c2cccc(C(F)(F)F)c2)c2cc(-c3ccccc3Cl)ccc2O1`, for which the figures for the EC50 in series [9], in series [10] and in [11] were 9 nM, 414 nM and above 10000 nM, respectively. For the same compound, in series [1], the CL/F was 11.1 mL/min/kg. Also, the AUC(0-inf) in series [2] worked out at 11700 ng·h/mL. Moreover, the half-life in [3] was 4.44 h. The compound further gave a bioavailability in [4] of 78%. This compound showed a hepatocyte CLint in series [5] of 32 µL/min/1e6 cells. The inhibition at 10 µM is 20% in series [6] and 0% in series [7]. The same compound registered a solubility in series [8] of 243 µM (≈ 128 µg/mL).

Consider `O=C(O)CC[C@H]1CN(S(=O)(=O)c2cccc(C(F)(F)F)c2)c2cc(-c3cccc(F)c3Cl)ccc2O1`, for which the figures for the EC50 in [9], in series [10] and in series [11] were 262 nM, 144 nM and above 10000 nM, respectively. The CL/F in series [1] was determined as 8.1 mL/min/kg. In series [2], this compound displayed a total exposure AUC(0-inf) of 19600 ng·h/mL. This compound showed a half-life in series [3] of 3.45 h. The bioavailability in [4] was found to be 95%. Besides, the hepatocyte CLint in series [5] stood at 26 µL/min/1e6 cells. Moreover, the inhibition at 10 µM in series [6] came out at 11%; in series [7] it was 6%. Also, the concentration in solution in series [8] (solubility) was 247 µM (≈ 134 µg/mL).

The term CL/F denotes clearance divided by bioavailability, as obtained after extravascular dosing. For orientation: AUC(0-inf) means the area under the concentration-time curve extrapolated to infinity. Low values mean less exposure, high ones more exposure. In general, half-life refers to the time in which the quantity being followed falls by half. The bioavailability is the share of a dose that reaches the circulation, judged against a reference dose that is usually intravenous. The low end stands for poor availability, the high end for good availability. For orientation: hepatocyte CLint means the capacity of the preparation to metabolise the compound, expressed as a volume cleared per time. A high value points to rapid turnover. By inhibition is commonly meant the drop in the measured response relative to a control, in per cent. By solubility is commonly meant the dissolved amount per volume that the medium holds. Read a low solubility as a poorly soluble substance. In general, EC50 refers to the concentration giving half of the maximal effect.
